# From patent US20140128357A1, “METHODS OF PRODUCING AND USING BRASSINOSTEROIDS TO PROMOTE GROWTH, REPAIR AND MAINTENANCE OF SKELETAL MUSCLE AND SKIN” (Rutgers University, priority 2010, published 2014)
# Tests used:
# [1] = test system: 3T3 mouse fibroblasts; test: Cell proliferation, BrdU assay; assay type: cell-based; details: 24 h
# Experimental: 3T3 fibroblasts were seeded in a 96-well flat bottom plate at a density of 1×10^4 cells/well. Cell viability was measured by an MTT (3-(4,5-Dimethylthiazol-2-yl)-2,5-diphenyltetrazolium bromide) assay in triplicate (0.3-30 μM of test substance for […]) essentially as described by Mosmann (J. Immunol. Methods 65, 55-63, 1983) and quantified spectrophotometrically at 550 nm using a microplate reader (Molecular Devices, Sunnyvale, Calif.). […] For cell proliferation studies, cells were treated in triplicate with 0.1-10 μM of test substance for 24 h and assayed using a BrdU (5-bromo-2′-deoxyuridine) kit from Amersham (Uppsala, Sweden).
# [2] = test system: gastrocnemius muscle mRNA (insulin signaling pathway, myogenic transcription factors); test: Gene expression in gastrocnemius muscle, insulin signaling PCR array and RT-PCR; assay type: in vivo, rat; details: 60 mg/kg oral 24 d
# Experimental: The body weight of each animal and the total amount of food consumed (accounted for spillage) were recorded every 2 d for the duration of the experiment. At the end of the experiment, blood was collected by heart puncture after CO2 inhalation and animal body composition was assessed by DEXA dual-energy X-ray absorptiometry analysis using a Lunar Prodigy Densitometer (GE Healthcare, Waukesha, Wis.). At necropsy, tissue weights were recorded. Tissue samples were collected by snap-freezing in liquid nitrogen and stored at −80° C. for further studies. Total RNA was isolated using Trizol, its quantity and purity were determined using a NanoDrop (Nanodrop Technologies, Wilmington, Del.).
# Pooled RNA samples obtained from frozen skeletal muscle (gastrocnemius muscle biopsies of vehicle- (Ctr) and HB-treated animals) were used in a rat insulin signaling PCR array to measure mRNA response to HB. […] However, the magnitude of the differences varied (FIG. 11A).
# [3] = test system: TNF-α, TGF-β and ICAM-1 mRNA in wounds; test: Cytokine and chemokine mRNA in wound tissue, qPCR; assay type: in vivo; details: day 10 post-wounding, 10 μg/mouse topically
# Experimental: Cutaneous would healing is characterized by an initial inflammatory response. To evaluate the effect of brassinosteroids on inflammation in wound healing, mRNA levels of proinflammatory cytokines TNF-α and TGF-β and an adhesion chemokine ICAM-1 were measured in the wound tissue of control and treated mice on day 10 post-wounding and treatment with HB, positive control (CGS-21680), or negative control (vehicle).
# Total RNA was extracted from fibroblasts using Trizol (Invitrogen, Carlsbad, Calif.). RNA was quantified spectrophotometrically by absorbance measurements at 260 and 280 nm using the NanoDrop reader (NanoDrop Technologies, Wilmington, Del.). Quality of RNA was assessed by gel electrophoresis. RNA was then treated with DnaseI (Invitrogen, Carlsbad, Calif.) to remove traces of DNA contamination and the cDNAs were synthesized with 2.5 μg of RNA using Stratascript reverse transcriptase (Stratagene, Santa Clara, Calif.) according to the manufacturers' protocols. Quantitative PCR was performed in duplicate essentially as described previously (Komarnytsky et al., Int. J. Obes. 35: 236-43, 2011) using the following gene-specific primers (IDT, Coralville, Iowa) selected using the Primer Express 2.0 software (Applied Biosystems, Foster City, Calif.): β-actin, forward primer 5′-GGGAAATCGTGCGTGACATT-3′ (SEQ ID NO: 5), and reverse primer 5′-GCG GCA GTG GCC ATC TC-3′ (SEQ ID NO: 6). Target gene expression of the housekeeping gene β-actin was assigned a value of 1. Samples were subjected to a melting curve analysis to confirm the amplification specificity. The relative change in the […] with respect to the endogenous control gene was determined using 2ΔΔCT method (Winer et al., Anal. Biochem. 270: 41-9, 1999).
# [4] = test system: collagen and elastin in skin; test: Collagen and elastin in skin of rats given oral HB (Example 16); assay type: in vivo, rat; details: 20 and 60 mg/kg oral daily 24 d, written in present tense
# Experimental: To evaluate the potential anabolic effects of plant brassinosteroids on the skin of animals, 20 and 60 mg/kg body weight of HB (HB20 and HB60, respectively) are orally administered daily to healthy rats fed normal diet for 24 d.
# Collagen and elastin production are measured in the skin of animals treated with HB versus their control counterparts. Protein degradation of collagen and elastin is measured in the skin of animals treated with HB versus their control counterparts, e.g., by collagen or elastin ELISAs. The amount of collagen and elastin protein present in the skin of animals treated with HB is measured versus their control counterparts.
# [5] = test system: orchiectomized (ORX) Wistar rats; test: 10-d Hershberger assay in ORX rats, subcutaneous HB (Protocol 4); assay type: in vivo, rat; details: for increase in gastrocnemius muscle mass: subcutaneous
# Experimental: Protocol 4: Four-week-old sham-operated (sham, n=6) or orchiectomized (ORX, n=24) Wistar rats (Charles River Laboratories, MA) were subject to a 10-d Hershberger assay (surgically castrated peri-pubertal adult model) under the following experimental conditions: sham, ORX (vehicle), ORX (0.4 mg/kg HB subcutaneously), ORX (4 mg/kg HB subcutaneously), and ORX (0.4 mg/kg testosterone propionate subcutaneously, serving as a positive control for the assay). All procedures and measurements followed protocol 1. […]
# [6] = test system: fully differentiated L6 rat skeletal myotubes; test: MTT cell viability in L6 myotubes; assay type: cell-based; details: up to 25 μM
# Experimental: In various aspects, cell viability is measured and the effects of doses of compound and test reagents are tested in cell lines. In some aspects, cell viability was measured by the MTT (3-(4,5-Dimethylthiazol-2-yl)-2,5-diphenyltetrazolium bromide) assay in triplicate (Mosmann et al., J. Immunol. Methods 65:55-63, 1983) and quantified spectrophotometrically at 550 nm using a microplate reader (Molecular Devices, Sunnyvale, Calif.).
# [7] = Cytotoxicity, MTT assay in 3T3 fibroblasts; assay type: cell-based, mouse; details: mouse
# [8] = pooled gastrocnemius RNA, PCR array
# [9] = 0.4 mg/kg subcutaneous daily 10 d
# [10] = 4 mg/kg subcutaneous daily 10 d
structure (smiles),measurement,setting,value
"CC[C@@H](C(C)C)[C@H](O)[C@@H](O)[C@@H](C)[C@H]1CC[C@H]2[C@@H]3COC(=O)[C@H]4C[C@H](O)[C@H](O)C[C@]4(C)[C@H]3CC[C@]12C [Compound 1, (22S,23S,24S)-2α,3α,22,23-tetrahydroxy-24 ethyl-β-homo-7-oxo-5α-cholestane-6-one]","Cell proliferation at 5 μM, % of control",[1],37.7 ± 3.4 %
same,expression of EIF2B1,[2],No changes
same,MYF5 mRNA upregulation,[2]; RT-PCR (FIG. 11C),1.3 fold
same,MYF6 mRNA upregulation,[2]; RT-PCR (FIG. 11C),1.3 fold
same,MYOD1 mRNA upregulation,[2]; RT-PCR (FIG. 11C),2.1 fold
same,MYOG (myogenin) mRNA upregulation,[2]; RT-PCR (FIG. 11C),1.7 fold
same,ADRA1D mRNA upregulation,[2]; [8],6.5 fold
same,FBP2 mRNA upregulation,[2]; [8],4.5 fold
same,IGF-2 mRNA upregulation,[2]; [8],1.4 fold
same,IGFBP1 mRNA upregulation,[2]; [8],2.5 fold
same,SREBP-1 mRNA upregulation,[2]; [8],2.5 fold
same,ICAM-1 mRNA in wound tissue,[3],significant suppression
same,TGF-β mRNA in wound tissue,[3],weak effect on the downregulation
same,TNF-α mRNA in wound tissue,[3],nearly complete downregulation
same,collagen and elastin production in skin,[4],increases collagen and elastin production in skin
same,Bulbocavernosus/levator ani weight,[5]; [9],131.3 ± 7.1 mg
same,Cowper's gland weight,[5]; [9],11.3 ± 0.5 mg
same,Glans penis weight,[5]; [9],50.7 ± 1.9 mg
same,Seminal vesicles weight,[5]; [9],29.0 ± 3.1 mg
same,Ventral prostate weight,[5]; [9],18.3 ± 1.2 mg
same,Bulbocavernosus/levator ani weight,[5]; [10],147.5 ± 6.9 mg
same,Cowper's gland weight,[5]; [10],10.5 ± 0.3 mg
same,Glans penis weight,[5]; [10],56.3 ± 3.3 mg
same,Seminal vesicles weight,[5]; [10],30.2 ± 1.2 mg
same,Ventral prostate weight,[5]; [10],23.2 ± 1.2 mg
same,increase in gastrocnemius muscle mass,[5]; one-fold dose of positive control (0.4 mg/kg),2.8%
same,increase in gastrocnemius muscle mass,[5]; ten-fold dose of positive control (4 mg/kg),9.1%
same,toxicity to L6 myotubes (MTT assay and cytological observations),[6],no toxicity
"CC[C@@H](C(C)C)[C@H](O)[C@@H](O)[C@@H](C)[C@H]1CC[C@H]2[C@@H]3CC(=O)[C@H]4C[C@H](O)[C@H](O)C[C@]4(C)[C@H]3CC[C@]12C [Compound 2, (22S,23S,24S)-2α,3α, 22,23-tetrahydroxy-24-ethyl-5α-cholestan-6-one]",IC50,[7],> 30 µM
